In PMC9784833, “Mangosteen Metabolites as Promising Alpha-Amylase Inhibitor Candidates: In Silico and In Vitro Evaluations” (Metabolites, 2022):

Target: T1, alpha-amylase (Homo sapiens, UniProt P04746)
T1 sequence (P04746 16-511): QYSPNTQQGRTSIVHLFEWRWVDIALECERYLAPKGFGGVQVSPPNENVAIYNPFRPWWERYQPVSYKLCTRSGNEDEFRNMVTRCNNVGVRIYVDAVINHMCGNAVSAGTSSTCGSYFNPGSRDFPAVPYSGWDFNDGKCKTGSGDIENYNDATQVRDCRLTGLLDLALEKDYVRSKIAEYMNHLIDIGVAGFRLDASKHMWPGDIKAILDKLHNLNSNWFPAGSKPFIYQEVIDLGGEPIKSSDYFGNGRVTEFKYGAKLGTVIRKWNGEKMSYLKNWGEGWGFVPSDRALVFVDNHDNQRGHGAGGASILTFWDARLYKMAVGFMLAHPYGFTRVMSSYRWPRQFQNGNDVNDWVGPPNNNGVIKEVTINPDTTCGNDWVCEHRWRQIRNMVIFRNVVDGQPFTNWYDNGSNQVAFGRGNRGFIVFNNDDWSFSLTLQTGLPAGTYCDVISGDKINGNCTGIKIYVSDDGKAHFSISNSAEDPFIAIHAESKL
Experiment: In vitro alpha-amylase inhibition assay (EnzChek Ultra-Amylase-Assay Kit)

Compound	IC50
O=C(c1cc(O)c(O)cc1O)c1c(O)cc(O)cc1OC1OC(CO)C(O)C(O)C1O [Compound 8, 6-O-β-D-Glucopyranosyl-2,4,6,3′,4′,6′-hexahydroxybenzophenone]	7.1 µM
CC(C)=CCc1c(O)cc2oc3c(O)c(O)c(O)c(CC=C(C)C)c3c(=O)c2c1O [Compound 40, Garcixanthone D]	11.1 µM
COc1cc2oc3cc(O)c(OC)c(CC=C(C)C)c3c(=O)c2c(O)c1/C=C\C(C)(C)O [Compound 35, Mangostanaxanthone VIII]	40.6 µM
COc1ccc(C2Oc3c(c(O)cc(O)c3C3OC(CO)C(O)C(O)C3O)C(=O)C2O)cc1 [Compound 9, 2R,3R-5,7-Dihydroxy-8-C-β-D-glucopyranosyl-4-methoxy-2,3-dihydroflavon-3-ol]	12.8 µM
COc1c(O)cc2oc3cc(O)c(/C=C\C(C)(C)O)c(O)c3c(=O)c2c1CC=C(C)C [Compound 28, Mangostanaxanthone IV]	46.5 µM
Oc1cc(O)c2c(c1)O[C@H](c1ccc(O)c(O)c1)[C@H](O)C2 [Compound 6, Epicatechin]	8.9 µM
COc1c(O)cc2oc3cc(O)c(CC=C(C)C)c(O)c3c(=O)c2c1CC=C(C)C [Compound 13, α-Mangostin]	44.1 µM
CC(C)=CCc1c(O)cc2oc3c(CC=C(C)C)c(O)c4c(c3c(=O)c2c1O)C=CC(C)(C)O4 [Compound 23, Tovophyllin A]	20.4 µM
CC(C)=CCc1c(O)cc2oc3c(CC=C(C)C)c(O)c(O)c(CC=C(C)C)c3c(=O)c2c1O [Compound 15, Garcinone E]	18.8 µM
CC(C)=CCc1c(O)c(CC=C(C)C)c2oc3c(O)ccc(O)c3c(=O)c2c1O [Compound 17, Gartanin]	21.2 µM
CC(C)=CCc1c(O)cc2oc3c(/C=C\C(C)(C)O)c(O)c(O)c(CC=C(C)C)c3c(=O)c2c1O [Compound 30, Mangostanaxanthone VI]	21.9 µM
CC(C)=CCc1c(O)c(C(=O)CC(C)(C)O)c2oc3c(O)ccc(O)c3c(=O)c2c1O [Compound 39, Garcixanthone C]	17.1 µM
CC(C)=CCc1c(O)c(O)c(/C=C\C(C)(C)O)c2c(=O)c3c(O)c(/C=C\C(C)(C)O)c(O)cc3oc12 [Compound 29, Mangostanaxanthone V]	11.9 µM
O=C(c1cccc(O)c1)c1c(O)cc(O)cc1O[C@@H]1O[C@H](CO)[C@@H](O)[C@H](O)[C@H]1O [Compound 3, 2,4,3’-Trihydroxy benzophenone-6-O-β-D-glucopyranoside]	15.8 µM
COc1c(O)cc2oc3c(CC=C(C)CCC=C(C)C)c(O)cc(O)c3c(=O)c2c1CC=C(C)CCC=C(C)C [Compound 10, Mangostanaxanthone I]	28.3 µM
CC(C)=CCc1c(O)cc2oc3cc(O)c(O)c(/C=C\C(C)(C)O)c3c(=O)c2c1O [Compound 31, Mangostanaxanthone VII]	19.5 µM
O=C1c2c(O)cc(O)c([C@@H]3O[C@H](CO)[C@@H](O)[C@H](O)[C@H]3O)c2O[C@H](c2ccc(O)cc2)[C@H]1O [Compound 5, Aromadendrin-8-C-glucoside]	8.3 µM
O=C(c1ccc(O)c(O)c1)c1c(O)cc(O)cc1O[C@@H]1O[C@H](CO)[C@@H](O)[C@H](O)[C@H]1O [Compound 4, Rhodanthenone]	10.4 µM
